Values joined by “and” are separate entries in the source; they are usually repeats but may differ in a detail not shown here. Equal entries are not always repeated.
How the values were obtained:
[1] = molecular target: T1, WT-TTR (Homo sapiens, UniProt P02766); assay: time course analysis of WT-TTR fibril formation inhibition; assay type: biochemical; conditions: for rate of TTR amyloidogenesis mediated by partial acidification relative to control: inhibitor 7.2 and 3.6 μM, WT-TTR 3.6 μM, pH 4.4, turbidity at 500 nm
T1 construct: made in house
Method: Time course analysis of WT-TTR fibril formation inhibition by compounds 25, 47, and 64. Compounds 25, 47, and 64 were dissolved in DMSO to provide 7.2 mM primary stock solutions (10× stocks), from which 5- and 10-fold DMSO dilutions yielded 1.44 mM (2×) and 0.72 mM (1×) secondary stock solutions, respectively. 495 μL of 0.4 mg/mL (7.2 μM) WT-TTR solution (10 mM sodium phosphate, 100 mM KCl, and 1 mM EDTA, pH 7.2), and 5 μL of either the 1.44 or 0.72 mM inhibitor secondary stock solutions were added to disposable UV cuvettes, vortexed briefly, then incubated for 30 min at 25° C. The pH was then adjusted to 4.4 with addition of 500 μL of acidic buffer (100 mM acetate, 100 mM KCl, 1 mM EDTA, pH 4.2), and the final 1 mL solutions were vortexed again and incubated in the dark at 37° C. without agitation. At 0, 4, 8, 12, 25, 49, 74, 100, 122, 145, and 169 h time points after acidification, the solutions were vortexed and the turbidity at 500 nm was measured. Control samples containing 5 μL of pure DMSO were prepared and analyzed as above for comparison. Small molecule and TTR control samples were prepared in groups of 10 to prevent disturbance of the cuvettes during incubation. Samples were discarded after their turbidities were measured.
FIG. 10 is a plot of the timecourse analysis of WT-TTR (3.6 μM) fibril formation mediated by partial acid denaturation in the absence (▴) and presence of 7.2 μM (⋄) and 3.6 μM (◯) inhibitors 25, 47, and 64, as measured by turbidity at 500 nm (see color scheme within Figure to differentiate inhibitors). It is hard to discern which compound is most efficacious in the black and white plot.

[2] = molecular target: T2, WT-TTR tetramer (Homo sapiens, UniProt P02766); assay: time course analysis of WT-TTR tetramer dissociation by linked monomer unfolding in urea; assay type: biochemical; conditions: for rate of TTR tetramer dissociation in 6M urea: inhibitor 7.2 and 3.6 μM, TTR 3.6 μM, far-UV CD
T2 construct: made in house
Source text: The ability of these inhibitors to impose kinetic stability on tetrameric TTR is best evaluated by assessing the rate of TTR tetramer dissociation (Hammarstrom, P.; et al. Science 2003, 299, 713-716; Hammarstrom, P.; et al. Proc. Natl. Acad. Sci. USA 2002, 99, 16427-16432). Under acidic conditions tetramer dissociation leads to amyloidogenesis, whereas in the presence of chaotropes (6M urea), tetramer dissociation leads to monomer unfolding. The influence of inhibitors 25, 47 and 64, representing the three structural classes of dibenzofuran-based inhibitors, on the rates of tetramer dissociation under acid- and urea-mediated denaturing conditions was probed. […] The rate of TTR tetramer dissociation in 6M urea is easily monitored by linking the slow quaternary structural changes to rapid tertiary structural changes that are easily monitored by spectroscopic methods (Hammarstrom, P.; et al. Proc. Natl. Acad. Sci. USA 2002, 99, 16427-16432).
Time course analysis of WT-TTR tetramer dissociation inhibition by compounds 25, 47, and 64 evaluated by linked-monomer unfolding in urea. Compounds 25, 47, and 64 were dissolved in DMSO to provide 10 mM primary stock solutions, from which 10-fold EtOH dilutions yielded 1 mM secondary stock solutions. 200 μL of 1.0 mg/mL (18 μM) WT-TTR solution (50 mM sodium phosphate, 100 mM KCl, and 1 mM EDTA, pH 7.2), and either 7.2 or 3.6 μL (2× and 1×, respectively) of 1 mM inhibitor secondary stock solutions were added to 2 mL eppendorf tubes, vortexed briefly, and incubated for 15 min at 25° C. 100 μL of the TTR•inhibitor solutions were added to 900 μL of urea buffer (6.67 M urea, 50 mM sodium phosphate, 100 mM KCl, 1 mM EDTA, pH 7.2), and the final 1 mL solutions were vortexed again and incubated in the dark at 25° C. without agitation. At 0, 4, 11, 24, 49, 73, 97, 122, 146, and 170 h time points after mixing with urea, the circular dichroism spectra were measured between […], with scanning every 0.5 nm and averaging for 5 s. […] Control samples containing 7.2 μL of 10% DMSO in EtOH were prepared and analyzed as above for comparison. […] TTR tetramer dissociation is linked to the rapid (˜500,000× faster) monomer denaturation as measured through this β-sheet loss (Hammarstrom, P.; et al. Proc. Natl. Acad. Sci. USA 2002, 99, 16427-16432).
FIG. 11 is a plot of the timecourse analysis of WT-TTR (3.6 μM) tetramer dissociation (6.0 M urea) in the absence (▴) and presence of 7.2 μM (⋄) and 3.6 μM (◯) concentrations of inhibitors 25, 47, and 64 (see color scheme within Figure to differentiate inhibitors). Slow tetramer dissociation is not detectable by far-UV CD spectroscopy, but this process is linked to rapid (˜500,000× faster) monomer denaturation as monitored by loss of β-sheet content easily followed by circular dichroism spectroscopy. […]

[3] = precipitation of small molecules under acid-mediated amyloidogenic conditions in the absence of TTR; assay type: physicochemical; conditions: 3.6 μM, pH 4.4, 37° C., 72 h
Method: TTR amyloid inhibition efficacy was probed using a stagnant fibril formation assay described previously, wherein partial denaturation was triggered by acidification (pH 4.4, 37° C.) (Colon, W.; Kelly, J. W. Biochemistry 1992, 31, 8654-8660). Briefly, a test compound (7.2 or 3.6 μM) is incubated with TTR (3.6 μM) for 30 min in pH 7 buffer. Amyloidogenesis is then initiated by lowering to pH 4.4, where maximal fibril formation is observed with WT-TTR after 72 h (37° C.). […] From experience we know that excellent inhibitors allow <10% fibril formation at a small molecule concentration of 7.2 μM and <40% fibril formation at a concentration equal to that of WT-TTR (3.6 μM) (Hammarstrom, P.; et al. Science 2003, 299, 713-716; Klabunde, T.; et al. Nature Struct. Biol. 2000, 7, 312-321; Razavi, H.; et al. Angew Chem 2003, 42, 2758-2761; Miroy, G. J.; et al. Proc. Natl. Acad. Sci. USA 1996, 93, 15051-15056; Peterson, S. A.; et al. Proc. Natl. Acad. Sci. USA 1998, 95, 12956-12960; Baures, P. W.; et al. Bioorg. Med. Chem. 1998, 6, 1389-1401; Baures, P. W.; et al. Bioorg. Med. Chem. 1999, 7, 1339-1347; Petrassi, H. M.; et al. J. Am. Chem. Soc. 2000, 122, 2178-2192; McCammon, M. G.; et al. Structure 2002, 10, 851-863; Oza, V. B.; et al. J. Med. Chem. 2002, 45, 321-332; Saccheftini, J. C.; et al. Nature Rev. Drug Disc. 2002, 1, 267-275; Green, N. S.; et al. J. Am. Chem. Soc. 2003, 125, 13404-13414; Adamski-Werner, S. L.; et al. J. Med. Chem. 2004, 47, 355-374; Miller Sean, R.; et al. Lab. Inv. 2004, 84, 545-552). […] Therefore, when both the ligand and TTR are at equal concentrations, a population of TTR•I, TTR•I2 and unliganded TTR is observed, dictated by the dissociation constants. It is now established by other studies that inhibitor occupancy of only one of the two TTR binding sites is sufficient to stabilize the entire tetramer against amyloidogenesis (Wiseman, R. L.; et al. J. Am. Chem. Soc. 2005, in press). This is further supported by the observation herein that twenty-six of these dibenzofurans are excellent TTR amyloidogenesis inhibitors (<40% fibril formation) at a concentration equal to that of TTR (3.6 μM each, FIG. 3).

[4] = molecular target: T3, TTR in human blood plasma (Homo sapiens, UniProt P02766); assay: plasma TTR binding selectivity, antibody capture method; conditions: inhibitor 10.8 μM, 24 h, 37° C.
T3 construct: from tissue; host or cells: human blood plasma
Method: Inhibitor binding selectivity to TTR in human blood plasma was assessed using a previously established antibody capture method (Purkey, H. E.; et al. Proc. Natl. Acad. Sci. USA 2001, 98, 5566-5571). In this evaluation, inhibitors (10.8 μM, ˜2-3× the natural concentration of TTR) are incubated in human blood plasma for 24 h at 37° C. Quenched sepharose resin is then added to the plasma to remove any small molecules that would bind to the resin as opposed to TTR. TTR and any TTR-bound small molecule is then immunocaptured using a polyclonal TTR antibody covalently attached to sepharose resin. After washing the resin (5×10 min washes), the antibody-TTR complex is dissociated at high pH and analyzed by RP-HPLC. The relative stoichiometry between TTR and inhibitor is then calculated from their HPLC peak areas using standard curves.
The procedures used for bacterial expression of TTR (Lai, Z.; et al. Biochemistry 1996, 35, 6470-6482), the stagnant fibril formation assay (Colon, W.; Kelly, J. W. Biochemistry 1992, 31, 8654-8660; Lai, Z.; et al. Biochemistry 1996, 35, 6470-6482), the blood plasma binding selectivity assay (Purkey, H. E.; et al. Proc. Natl. Acad. Sci. USA 2001, 98, 5566-5571), and analytical ultracentrifugation (Lashuel, H. A.; et al. Biochemistry 1998, 37, 17851-17864) have all been described in detail previously.

[5] = molecular target: T1, WT-TTR; conditions: inhibitor 7.2 μM, WT-TTR 3.6 μM, pH 4.4, 72 h; cited from earlier work
[6] = molecular target: T4, TTR (Homo sapiens, UniProt P02766); assay: analytical ultracentrifugation of TTR quaternary structure under amyloidogenic conditions; conditions: 27 at 7.2 μM, TTR 3.6 μM, 72 h at pH 4.4, 37° C.; tetramer expected 55.0 kDa
T4 construct: made in house
Method: To ensure that these C1-arylated dibenzofurans inhibit TTR fibril formation by native state stabilization (i.e. tetramer stabilization), we studied the TTR quaternary structure by analytical ultracentrifugation after a preincubation period of 72 h under amyloidogenic conditions (pH 4.4, 37° C.). […] In the absence of 27, TTR aggregated into very high molecular weight oligomers that sedimented rapidly in the ultracentrifugation experiment (data not shown). […]
(§1) FIG. 8 is a plot of the absorbance at 280 nm versus distance from the center in the sedimentation velocity study on TTR ([…]) after being preincubated with 27 ([…]) and after another incubation period where the pH was dropped to 4.4 for 72 h, a time frame that results in maximal amyloid formation in the absence of inhibitor. […]
as §1, with “FIG. 9” for “FIG. 8”, “the equilibrium ultracentrifugation studies” for “the sedimentation velocity study”

Row | Structure (SMILES) | rate of TTR amyloidogenesis mediated by partial acidification relative to control [1] | rate of TTR tetramer dissociation in 6M urea [2] | precipitation in the absence of TTR [3] | other results
1 | O=C(O)c1cccc2c1oc1c(C(=O)O)ccc(Nc3ccccc3C(F)(F)F)c12 [Compound 25] | dramatically slowed in a dose-dependent fashion | markedly slowed in a dose-dependent fashion | no measurable precipitation | order of effect on tetramer dissociation at the end of the time course ([2]; after 169 hours, 6.0 M urea, FIG. 11): most effective in dissociating tetramers
2 | O=C(O)c1cccc2c1oc1c(C(=O)O)cccc12 [Compound 1, dibenzofuran-4,6-dicarboxylic acid, reference compound] |  |  |  | binding selectivity to TTR in human blood plasma [4]: no measurable binding selectivity; decrease of the extent of WT-TTR amyloid formation [5]: 90%
3 | O=C(O)c1cccc2c1oc1c(C(=O)O)ccc(Oc3cc(Cl)cc(Cl)c3)c12 [Compound 47] | dramatically slowed in a dose-dependent fashion | markedly slowed in a dose-dependent fashion | no measurable precipitation | order of fibrils formed at the end of the time course ([1]; after 169 hours, FIG. 10): shows the most fibrils formed
4 | O=C(O)c1cccc2c1oc1c(C(=O)O)ccc(Nc3cccc(Cl)c3)c12 [Compound 27] |  |  | no measurable precipitation | hydrodynamic molecular weight of TTR by equilibrium analytical ultracentrifugation [6]: 55.1±0.4 kDa and 55.0±0.2 kDa; hydrodynamic molecular weight of TTR by sedimentation velocity [6]: 57.1±0.3 kDa and 57.1±0.2 kDa
5 | O=C(O)c1cccc2c1oc1c(C(=O)O)ccc(-c3cc(C(F)(F)F)cc(C(F)(F)F)c3)c12 [Compound 64] | dramatically slowed in a dose-dependent fashion | markedly slowed in a dose-dependent fashion |  | 

From patent US20050261365A1, “Transthyretin stabilization” (The Scripps Research Institute, priority 2004, published 2005)
